Converted amounts (≈) assume the structure as drawn. “Also recorded” adds a separate entry of the source. Like-named read-outs stand apart in the source and are kept apart here.
How the values were obtained:
A. baumannii UppS = A. baumannii UppS (Acinetobacter baumannii, UniProt V5VCK8); assay: UppS biochemical assay (pyrophosphatase / Biomol Green); details: average of two replicates with s.d.
From the text: (§1) 368 Both the S. aureus and A. baumannii UppS in vitro biochemical assay use a pyrophosphatase and Biomol
(§2) 369 Green Phosphate detection reagent to assess catalytic activity. These assays were based on previously
(§3) 370 described assays both within GSK and others11-13. Briefly, the enzyme will add up to 8 isopentyl
(§4) 371 pyrophosphate (IPP) units onto a farnesyl pyrophosphate FPP molecule, resulting in the production of 8
(§5) 372 moles of inorganic pyrophosphates per mole of substrate added. The pyrophosphate is then converted
(§6) 373 to inorganic phosphate by a pyrophosphatase, and this phosphate is detected by Biomol Green. The
(§7) 374 assay is conducted in buffer containing 100 mM Trizma pH7.5, 1 mM MgCl2, 6 mM CHAPS and 0.005% […]
(§8) 378 10 μL. The detection reagent was incubated for 20 min and 610-620 nm light was monitored by a Perkin
(§9) 379 Elmer Envision plate reader. […]
(§10) 383 Standard deviation values were calculated using the n-1 method. […]
(§11) 388 A fluorescence intensity coupled assay was used to measure the in vitro biochemical activity of S. aureus […]
(§12) 391 enzyme then digests the liberated peptide GFGF-AFC releasing the AFC causing a fluorescence increase
(§13) 392 monitored by an Envision plate reader. […]
(§14) 395 90 minute incubation with quench/detection solution, plates were read on an envision plate reader with […]
(§15) 406 A fluorescence intensity coupled assay was used to measure the in vitro biochemical activity of M. […]

[1] = test system: A. baumannii BM4652 efflux mutant, pRK415 and pRK415-UppS; assay: microbe, parasite or virus in culture; format: cell-based, Acinetobacter baumannii
[2] = test system: Acinetobacter baumannii BM4652 ΔadeABC ΔadeIJK (efflux mutant); assay: MIC broth microdilution; format: cell-based
[3] = test system: S. aureus WCUH29 wild type; assay: MIC broth microdilution; format: cell-based, Staphylococcus aureus; details: for MIC: Staphylococcus aureus, WCUH29WILDTYPE
[4] = test system: Haemophilus influenzae H128 ΔacrB; assay: MIC broth microdilution; format: cell-based
[5] = test system: Acinetobacter baumannii ATCC 19606-1 ΔLpxC; assay: MIC broth microdilution; format: cell-based; details: ATCC19606
[6] = test system: Pseudomonas aeruginosa PA0322 Δ(mexAB-oprM) Δ(mexCD-oprJ) Δ(mexEF-oprN); assay: MIC broth microdilution; format: cell-based
[7] = test system: Klebsiella pneumoniae 1161486a ΔtolC; assay: MIC broth microdilution; format: cell-based
[8] = test system: Escherichia coli 7623 ΔtolC; assay: MIC broth microdilution; format: cell-based
[9] = target: S. aureus methionine aminopeptidase, MetAP (Staphylococcus aureus, UniProt P0A078); assay: MetAP biochemical assay (fluorescence intensity coupled); details: average of two replicates with s.d.
Chain of S. aureus methionine aminopeptidase, MetAP (P0A078 whole entry): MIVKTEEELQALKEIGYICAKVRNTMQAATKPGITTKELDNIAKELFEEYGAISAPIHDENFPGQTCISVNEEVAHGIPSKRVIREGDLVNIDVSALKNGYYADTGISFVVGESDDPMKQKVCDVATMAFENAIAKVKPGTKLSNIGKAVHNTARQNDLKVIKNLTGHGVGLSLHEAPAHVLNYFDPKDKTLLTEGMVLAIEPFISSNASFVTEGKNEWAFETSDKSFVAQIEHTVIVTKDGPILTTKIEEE
From the text: as §1, §2, §3, §4, §5, §6, §7, §8, §9, §10, §11, §12, §13, §14, §15

Chain of A. baumannii UppS (V5VCK8 entry or part of it): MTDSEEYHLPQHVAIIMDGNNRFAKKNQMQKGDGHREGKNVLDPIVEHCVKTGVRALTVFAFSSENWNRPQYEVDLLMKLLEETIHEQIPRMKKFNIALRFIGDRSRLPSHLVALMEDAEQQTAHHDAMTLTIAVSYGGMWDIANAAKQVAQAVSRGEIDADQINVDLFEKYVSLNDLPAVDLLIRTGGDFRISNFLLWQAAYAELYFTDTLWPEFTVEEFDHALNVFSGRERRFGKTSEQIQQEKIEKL

SMILES: CNC(=O)[C@@H](NC(=O)c1cc(Cl)c(Cl)cc1C(=O)NCc1ccc(C(C)(C)C)cc1)C(C)(C)C [Compound 5]
- IC50 (A. baumannii UppS): 43 ± 25 nM
- MIC ([1]; A. baumannii BM4652 efflux mutant + pRK415-UppS, 30 μg/ml polymyxin B nonapeptide): 2 µg/mL
- MIC ([1]; A. baumannii BM4652 efflux mutant + pRK415, 30 μg/ml polymyxin B nonapeptide): 0.25 µg/mL
- MIC ([1]; Acinetobacter baumannii, A. baumannii BM4652 efflux mutant + pRK415-UppS, 30 μg/ml polymyxin B nonapeptide): 2 µg/mL
- MIC ([1]; Acinetobacter baumannii, A. baumannii BM4652 efflux mutant + pRK415, 30 μg/ml polymyxin B nonapeptide): 0.25 µg/mL
- MIC ([1]; Acinetobacter baumannii, A. baumannii BM4652 efflux mutant, N/A (no plasmid), 30 μg/ml polymyxin B nonapeptide): 0.25 µg/mL
- MIC ([1]; Acinetobacter baumannii, without the permeabilising agent): > 128 µg/mL
- Fold MIC increase ([1]; pRK415-UppS overexpressing strain relative to parent strain, 30 μg/ml polymyxin B nonapeptide): 8 fold
- MIC ([2]; A. baumannii BM652 efflux strain): > 128 µg/mL
- MIC ([2]; A. baumannii BM4652 ΔadeABC ΔadeIJK efflux mutant): > 128 µg/mL
- MIC [3]: > 128 µg/mL
- MIC [4]: 1 µg/mL (≈ 1.97 µM)
- MIC [5]: < 0.125 µg/mL
- MIC [6]: > 128 µg/mL
- MIC [7]: > 128 µg/mL
- MIC [8]: > 128 µg/mL

SMILES: Cc1nnc(Cn2c(C(C)Cc3ccc4c(c3)OCO4)nc3cccc(Cl)c32)[nH]1 (stereo not shown) [Compound 3]
- IC50 [9]: 350 ± 10 nM
- antibacterial activity ([3]; S. aureus): lacked S. aureus antibacterial activity; also recorded: lacks antibacterial activity
- MIC ([3]; S. aureus WCUH29 wild type, read-out: MIC): > 128 µg/mL

Source: paper PMC5520047, “Prioritizing multiple therapeutic targets in parallel using automated DNA-encoded library screening” (Nature Communications, 2017)
